{"source": "ChEMBL document CHEMBL2029277", "about": "“Discovery of XL413, a potent and selective CDC7 inhibitor” (Bioorg Med Chem Lett, 2012)", "key": {"[1]": {"biological_target": "T1, Cell division cycle 7-related protein kinase (Homo sapiens, UniProt O00311)", "T1 sequence (O00311 whole entry)": "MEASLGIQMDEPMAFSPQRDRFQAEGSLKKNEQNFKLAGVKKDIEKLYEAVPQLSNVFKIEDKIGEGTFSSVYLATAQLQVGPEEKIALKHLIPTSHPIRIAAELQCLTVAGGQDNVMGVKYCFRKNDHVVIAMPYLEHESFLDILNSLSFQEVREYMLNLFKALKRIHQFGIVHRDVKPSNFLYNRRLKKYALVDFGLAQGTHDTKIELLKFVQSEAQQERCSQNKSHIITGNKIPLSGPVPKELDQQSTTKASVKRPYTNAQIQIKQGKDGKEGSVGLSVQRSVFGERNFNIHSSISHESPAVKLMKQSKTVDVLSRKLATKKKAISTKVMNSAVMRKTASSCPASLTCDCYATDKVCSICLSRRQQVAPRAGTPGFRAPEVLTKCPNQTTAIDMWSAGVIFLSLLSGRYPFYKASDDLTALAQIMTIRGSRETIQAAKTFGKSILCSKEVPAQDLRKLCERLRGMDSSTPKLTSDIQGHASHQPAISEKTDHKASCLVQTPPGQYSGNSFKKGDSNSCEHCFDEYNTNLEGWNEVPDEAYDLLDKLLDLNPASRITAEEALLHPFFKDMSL", "assay": "Inhibition of N-terminus Myc-tagged human CDC7 expressed in Escherichia coli by chemiluminescence assay in presence of ATP"}, "[2]": {"biological_target": "Serine/threonine-protein kinase pim-1 (Homo sapiens, UniProt P11309)", "sequence (P11309 whole entry)": "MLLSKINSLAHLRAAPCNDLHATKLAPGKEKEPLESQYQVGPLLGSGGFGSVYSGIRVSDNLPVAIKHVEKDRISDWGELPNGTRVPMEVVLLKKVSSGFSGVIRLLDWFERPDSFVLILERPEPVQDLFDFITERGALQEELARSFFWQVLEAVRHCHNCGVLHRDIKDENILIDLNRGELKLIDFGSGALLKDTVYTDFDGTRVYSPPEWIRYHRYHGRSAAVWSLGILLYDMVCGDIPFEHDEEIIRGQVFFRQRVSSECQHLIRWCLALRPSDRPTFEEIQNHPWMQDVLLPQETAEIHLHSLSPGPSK", "assay": "Inhibition of N-terminus His-tagged human PIM1 expressed in Escherichia coli using AKRRRLSA as substrate after 1 to 2 hrs by chemiluminescence assay"}, "[3]": {"biological_target": "Casein kinase II alpha/beta (Homo sapiens, UniProt P68400)", "sequence (P67870 whole entry)": "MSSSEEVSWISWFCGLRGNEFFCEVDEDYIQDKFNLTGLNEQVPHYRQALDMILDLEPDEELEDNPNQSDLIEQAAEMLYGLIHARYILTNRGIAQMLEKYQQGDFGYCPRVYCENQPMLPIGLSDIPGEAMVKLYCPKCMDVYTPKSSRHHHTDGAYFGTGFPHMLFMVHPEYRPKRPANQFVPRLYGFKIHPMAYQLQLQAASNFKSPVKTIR", "sequence (P68400 whole entry)": "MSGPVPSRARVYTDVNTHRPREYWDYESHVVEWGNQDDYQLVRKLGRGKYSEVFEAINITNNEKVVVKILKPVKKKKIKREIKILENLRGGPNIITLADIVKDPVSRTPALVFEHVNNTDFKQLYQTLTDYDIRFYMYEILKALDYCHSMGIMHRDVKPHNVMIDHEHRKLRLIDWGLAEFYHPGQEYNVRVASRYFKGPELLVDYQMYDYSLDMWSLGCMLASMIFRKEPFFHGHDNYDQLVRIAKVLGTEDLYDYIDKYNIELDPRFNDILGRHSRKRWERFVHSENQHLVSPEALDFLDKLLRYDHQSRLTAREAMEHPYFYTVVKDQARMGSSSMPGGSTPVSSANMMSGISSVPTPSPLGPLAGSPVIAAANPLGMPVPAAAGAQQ", "assay": "Inhibition of human tertrameric CK2alphabeta holoenzyme using casein as substrate after 1 to 2 hrs by chemiluminescence assay in presence of 2 uM ATP", "type": "protein-complex assay"}, "[4]": {"biological_target": "T1, Cell division cycle 7-related protein kinase", "assay": "Inhibition of CDC7 in human MDA-MB-231T cells assessed as inhibition of MCM2 phosphorylation at Ser53 after 4 hrs", "type": "cell-based"}, "[5]": {"assay": "Plasma concentration in mouse at 100 mg/kg, po measured after 4 hrs", "type": "ADME, organism-based", "set-up": "dose 100 mg/kg, route oral"}, "[6]": {"assay": "Plasma concentration in mouse at 100 mg/kg, po measured after 1 hr", "type": "ADME, organism-based", "set-up": "dose 100 mg/kg, route oral"}}, "data": [{"smiles": "O=c1[nH]c(CN2CC[C@H](O)C2)nc2c1oc1ccc(Cl)cc12", "values": [{"measurement": "IC50", "setting": "[1]", "value": 2200, "unit": "nM"}]}, {"smiles": "COc1ccc2oc3c(=O)[nH]c([C@@H]4CCCN4)nc3c2c1", "values": [{"measurement": "IC50", "setting": "[1]", "value": 6.1, "unit": "nM"}, {"measurement": "IC50", "setting": "[2]", "value": 77, "unit": "nM"}, {"measurement": "IC50", "setting": "[3]", "value": 238, "unit": "nM"}, {"measurement": "IC50", "setting": "[4]", "value": 1370, "unit": "nM"}]}, {"smiles": "CN1CCC[C@H]1c1nc2c(oc3ccc(Br)cc32)c(=O)[nH]1", "values": [{"measurement": "IC50", "setting": "[1]", "value": 7.3, "unit": "nM"}, {"measurement": "IC50", "setting": "[2]", "value": 11, "unit": "nM"}, {"measurement": "IC50", "setting": "[3]", "value": 63, "unit": "nM"}, {"measurement": "IC50", "setting": "[4]", "value": 802, "unit": "nM"}]}, {"smiles": "O=c1[nH]c(C2CCNCC2)nc2c1oc1ccc(Br)cc12", "values": [{"measurement": "IC50", "setting": "[1]", "value": 6.2, "unit": "nM"}, {"measurement": "IC50", "setting": "[2]", "value": 22, "unit": "nM"}, {"measurement": "IC50", "setting": "[3]", "value": 50, "unit": "nM"}, {"measurement": "IC50", "setting": "[4]", "value": 1430, "unit": "nM"}]}, {"smiles": "CC(N)c1nc2c(oc3ccc(Br)cc32)c(=O)[nH]1", "note": "(racemic)", "values": [{"measurement": "IC50", "setting": "[1]", "value": 7.9, "unit": "nM"}, {"measurement": "IC50", "setting": "[2]", "value": 72, "unit": "nM"}, {"measurement": "IC50", "setting": "[3]", "value": 757, "unit": "nM"}, {"measurement": "IC50", "setting": "[4]", "value": 874, "unit": "nM"}]}, {"smiles": "O=c1[nH]cnc2c1oc1ccc(Br)cc12", "values": [{"measurement": "IC50", "setting": "[1]", "value": 2000, "unit": "nM"}, {"measurement": "IC50", "setting": "[3]", "value": 1500, "unit": "nM"}]}, {"smiles": "O=c1[nH]c(CN2CC[C@H](O)C2)nc2c1oc1ccc3c(c12)OCO3", "values": [{"measurement": "IC50", "setting": "[1]", "value": 14000, "unit": "nM"}]}, {"smiles": "O=c1[nH]c([C@@H]2C[C@@H](F)CN2)nc2c1oc1ccc(Br)cc12", "values": [{"measurement": "IC50", "setting": "[1]", "value": 3.7, "unit": "nM"}, {"measurement": "IC50", "setting": "[2]", "value": 46, "unit": "nM"}, {"measurement": "concentration at 4 h", "setting": "[5]", "value": 46, "unit": "µM"}, {"measurement": "IC50", "setting": "[3]", "value": 238, "unit": "nM"}, {"measurement": "concentration at 1 h", "setting": "[6]", "value": 82, "unit": "µM"}, {"measurement": "IC50", "setting": "[4]", "value": 82, "unit": "nM"}]}, {"smiles": "O=C(O)C1CCN(Cc2nc3c(oc4ccc(Br)cc43)c(=O)[nH]2)C1", "note": "(racemic)", "values": [{"measurement": "IC50", "setting": "[1]", "value": 13, "unit": "nM"}, {"measurement": "IC50", "setting": "[2]", "value": 142, "unit": "nM"}, {"measurement": "IC50", "setting": "[3]", "value": 49, "unit": "nM"}, {"measurement": "IC50", "setting": "[4]", "value": "> 40000", "unit": "nM"}]}, {"smiles": "O=c1[nH]c([C@@H]2C[C@@H](F)CN2)nc2c1oc1ccc(Cl)cc12", "values": [{"measurement": "IC50", "setting": "[1]", "value": 4, "unit": "nM"}, {"measurement": "IC50", "setting": "[2]", "value": 65, "unit": "nM"}, {"measurement": "IC50", "setting": "[3]", "value": 752, "unit": "nM"}, {"measurement": "IC50", "setting": "[4]", "value": 167, "unit": "nM"}]}, {"smiles": "O=c1[nH]c([C@H]2CCCN2)nc2c1oc1ccc(Br)cc12", "values": [{"measurement": "IC50", "setting": "[1]", "value": 70, "unit": "nM"}, {"measurement": "IC50", "setting": "[2]", "value": 104, "unit": "nM"}, {"measurement": "IC50", "setting": "[3]", "value": 1510, "unit": "nM"}, {"measurement": "IC50", "setting": "[4]", "value": 4590, "unit": "nM"}]}]}
